The results in this text go back to patent US9388141B2, “Acylaminocycloalkyl compounds suitable for treating disorders that respond to modulation of dopamine D3 receptor” (AbbVie Deutschland GmbH & Co. KG, priority 2013, dated 2016).

Data set [1] addresses T1, human dopamine D3 receptors (Homo sapiens, UniProt P35462).
T1 construct: expressed in transfected cells; host or cells: HEK-293
As to the kind of experiment: Dopamine D3 receptor binding, [125I]-iodosulpride displacement. The settings on record: membranes of HEK-293 cells with human D3 receptors, 0.1 nM [125I]-iodosulpride. The protocol: (§1) The substance to be tested was either dissolved in methanol/Chremophor® (BASF SE) or in dimethyl sulfoxide and then diluted with water to the desired concentration.
(§2) Each assay mixture was run in triplicate. • The incubation buffer contained 50 mM tris, 120 mM NaCl, 5 mM KCl, 2 mM CaCl2, 2 mM MgCl2 and 0.1% bovine serum albumin, 10 μM quinolone and 0.1% ascorbic acid (prepared fresh daily). […] Each assay mixture was run in triplicate. • The incubation buffer contained 50 mM tris, 120 mM NaCl, 5 mM KCl, 2 mM CaCl2, 2 mM MgCl2 and 0.1% bovine serum albumin. The buffer was adjusted to pH 7.4 with HCl. c) Measurement and Analysis: • After having been incubated at 25° C. for 60 minutes, the assay mixtures were filtered through a Whatman GF/B glass fiber filter under vacuum using a cell collecting device. The filters were transferred to scintillation viols using a filter transfer system. After 4 ml of Ultima Gold® (Packard) have been added, the samples were shaken for one hour and the radioactivity was then counted in a Beta-Counter (Packard, Tricarb 2000 or 2200CA).

Data set [2] is described as follows: Determination of the microsomal half-life / microsomal clearance. The data set is classed as in vitro ADME. The settings on record: human liver microsomes, 0.5 μM test substance, 0.25 mg microsomal protein/ml, pH 7.4, 37° C. The protocol: The metabolic stability of the compounds of the invention was determined in the following assay.
The test substances were incubated in a concentration of 0.5 μM as follows:
0.5 μM test substance are preincubated together with liver microsomes from different species (from rat, human or other species) (0.25 mg of microsomal protein/ml) in 0.05 M potassium phosphate buffer of pH 7.4 in microtiter plates at 37° C. for 5 min. The reaction is started by adding NADPH (1 mg/mL). After 0, 5, 10, 15, 20 and 30 min, 50 μl aliquots are removed, and the reaction is immediately stopped and cooled with the same volume of acetonitrile. The samples are frozen until analyzed. The remaining concentration of undegraded test substance is determined by MSMS. The half-life (T1/2) is determined from the gradient of the signal of test substance/unit time plot, it being possible to calculate the half-life of the test substance, assuming first order kinetics, from the decrease in the concentration of the compound with time. The microsomal clearance (mCl) is calculated from mCl=1n2/T1/2/(content of microsomal protein in mg/ml)×1000 [[…]] (modified from references: Di, The Society for Biomoleculur Screening, 2003, 453-462; Obach, DMD, 1999 vol 27. N 11, 1350-1359).

Data set [3] has as its target T2, hERG cardiac K+ channel (Homo sapiens, UniProt Q12809).
T2 construct: expressed in transfected cells; host or cells: HEK-293
The experiment in a line: Blocking the hERG channel, [3H]dofetilide displacement. It is filed as binding. To be noted: membrane homogenate of HEK 293 cells with hERG K+ channels. As to the method:
The binding affinity of test drugs for the hERG cardiac K^+ channel was determined by their ability to displace tritiated dofetilide (a class III antiarrhythmic drug and potent hERG blocker) in membrane homogenates from HEK-293 cells heterogeneously expressing the hERG channel. The assay was performed as previously described G. J. Diaz et al., Journal of Pharmacological and Toxicological Methods, 50 (2004), 187-199). For this, drug dilutions were prepared from 10 mM DMSO stocks and the following were added to a 96-well polystyrene plate (Perkin-Elmer Optiplate): 20 μl of assay binding buffer (for total bounds), or […] astemizole (for non-specific bounds), or test drug, 50 μl of [^3H]dofetilide (20 nM, ˜80 Ci/mmol specific activity), and 130 μl of membrane homogenate from HEK 293 cells stably transfected with hERG K^+ channels (final protein concentration of 30 μg per well). The plates were incubated at ambient temperature for […], aspirated onto GF/B filter plates (Perkin-Elmer), and washed with 2 ml of cold wash buffer. After allowing the plates to dry, 50 μl of scintillant (Perkin-Elmer MicroScint 20) were added to each well and the radioactivity was counted in a Perkin-Elmer Topcount NXT scintillation counter. […]
(In general: The hERG channel carries a current that helps repolarise heart muscle cells.)

Data set [4] concerns the target T3, human dopamine D2L receptors (long isoform) (Homo sapiens, UniProt P14416).
T3 construct: expressed in transfected cells; host or cells: HEK-293
The experiment in a line: Dopamine D2L receptor binding, [125I]-iodospiperone displacement. The settings on record: selectivity ratio Ki (D2L)/Ki (D3). As to the method:
as §1, §2

Where only a bound is given, the exact number is not on record here.

T1 sequence (P35462 whole entry): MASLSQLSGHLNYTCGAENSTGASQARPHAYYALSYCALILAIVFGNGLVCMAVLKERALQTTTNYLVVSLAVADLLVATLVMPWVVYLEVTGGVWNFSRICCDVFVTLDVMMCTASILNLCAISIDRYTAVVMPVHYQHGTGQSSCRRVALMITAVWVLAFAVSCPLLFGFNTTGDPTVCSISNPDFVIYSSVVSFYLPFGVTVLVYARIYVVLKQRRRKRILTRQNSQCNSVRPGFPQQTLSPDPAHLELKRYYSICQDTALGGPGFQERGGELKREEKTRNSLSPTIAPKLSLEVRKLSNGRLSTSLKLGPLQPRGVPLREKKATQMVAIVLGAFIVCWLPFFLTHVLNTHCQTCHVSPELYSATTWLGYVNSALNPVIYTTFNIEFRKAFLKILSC
T3 sequence (P14416 whole entry, canonical isoform): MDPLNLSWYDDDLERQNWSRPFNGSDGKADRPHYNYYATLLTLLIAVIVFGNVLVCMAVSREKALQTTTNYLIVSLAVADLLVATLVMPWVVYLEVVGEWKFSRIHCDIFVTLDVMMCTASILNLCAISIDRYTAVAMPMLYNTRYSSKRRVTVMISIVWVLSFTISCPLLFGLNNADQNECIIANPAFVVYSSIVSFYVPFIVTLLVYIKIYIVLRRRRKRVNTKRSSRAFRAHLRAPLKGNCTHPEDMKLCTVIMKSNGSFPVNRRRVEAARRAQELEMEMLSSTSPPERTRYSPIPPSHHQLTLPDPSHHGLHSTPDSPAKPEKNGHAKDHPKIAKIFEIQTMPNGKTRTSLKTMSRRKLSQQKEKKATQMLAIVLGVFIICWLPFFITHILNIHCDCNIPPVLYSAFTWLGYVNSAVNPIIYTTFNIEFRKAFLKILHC
T2 sequence (Q12809 whole entry): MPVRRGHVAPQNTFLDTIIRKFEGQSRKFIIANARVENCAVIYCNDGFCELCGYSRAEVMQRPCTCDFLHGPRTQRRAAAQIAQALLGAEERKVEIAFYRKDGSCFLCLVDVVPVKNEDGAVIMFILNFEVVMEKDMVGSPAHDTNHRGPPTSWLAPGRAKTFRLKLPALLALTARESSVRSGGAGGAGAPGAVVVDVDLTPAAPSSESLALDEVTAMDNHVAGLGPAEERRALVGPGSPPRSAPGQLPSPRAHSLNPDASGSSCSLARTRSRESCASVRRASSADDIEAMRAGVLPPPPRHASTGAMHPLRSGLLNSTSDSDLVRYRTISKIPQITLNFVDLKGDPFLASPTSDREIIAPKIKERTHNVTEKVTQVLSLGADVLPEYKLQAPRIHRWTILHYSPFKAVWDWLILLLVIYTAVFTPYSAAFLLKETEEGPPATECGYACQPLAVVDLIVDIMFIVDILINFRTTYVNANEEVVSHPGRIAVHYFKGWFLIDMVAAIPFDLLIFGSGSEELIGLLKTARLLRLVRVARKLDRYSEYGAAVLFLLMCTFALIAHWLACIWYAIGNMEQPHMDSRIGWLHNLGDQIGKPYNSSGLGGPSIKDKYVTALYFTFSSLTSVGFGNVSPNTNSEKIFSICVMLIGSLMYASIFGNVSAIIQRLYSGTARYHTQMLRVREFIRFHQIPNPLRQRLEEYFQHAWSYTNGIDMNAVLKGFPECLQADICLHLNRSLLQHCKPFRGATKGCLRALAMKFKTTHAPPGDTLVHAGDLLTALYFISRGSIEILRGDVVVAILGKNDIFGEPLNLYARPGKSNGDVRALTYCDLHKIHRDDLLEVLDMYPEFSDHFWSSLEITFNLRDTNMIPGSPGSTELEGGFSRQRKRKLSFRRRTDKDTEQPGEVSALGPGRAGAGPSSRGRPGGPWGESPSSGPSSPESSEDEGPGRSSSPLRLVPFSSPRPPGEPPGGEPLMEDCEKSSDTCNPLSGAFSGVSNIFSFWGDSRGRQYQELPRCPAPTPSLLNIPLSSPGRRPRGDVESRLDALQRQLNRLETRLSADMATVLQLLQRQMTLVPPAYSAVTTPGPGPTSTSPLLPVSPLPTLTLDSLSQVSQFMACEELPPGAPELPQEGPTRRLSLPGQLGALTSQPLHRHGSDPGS

In data set [1], `CC(C)(C)c1nc(C2CCC2)cc(N2CCN(CC[C@H]3CC[C@H](NC(=O)[C@H]4CC[C@H](O)CC4)CC3)CC2)n1` [Compound 1, trans-N-[trans-4-[2-[4-(2-tert-butyl-6-cyclobutyl-pyrimidin-4-yl)piperazin-1-yl]ethyl]cyclohexyl]-4-hydroxy-cyclohexanecarboxamide] gave a Ki of under 10 nM. In addition, the “Human mCl” value in data set [2] was “+ (+: 20-120 μl min^−1 mg^−1)”. In data set [3], this molecule yielded an IC50 of over 10000 nM. The “D2/D3, Ki (D2L)/Ki (D3)” value in data set [4] is on record as “+++ (+++>50)”.
Consider `CC(C)(C)c1nc(C2CCCC2)cc(N2CCN(CC[C@H]3CC[C@@H](NC(=O)[C@H]4CC[C@H](O)CC4)CC3)CC2)n1` [Compound 36, trans-N-[cis-4-[2-[4-(2-tert-butyl-6-cyclopentyl-pyrimidin-4-yl)piperazin-1-yl]ethyl]cyclohexyl]-4-hydroxy-cyclohexanecarboxamide], for which the inhibition constant (Ki) in data set [1] is under 10 nM. For the same molecule, the “Human mCl” value in data set [2] is given as “+ (+: 20-120 μl min^−1 mg^−1)”. For the same molecule, the “D2/D3, Ki (D2L)/Ki (D3)” value in data set [4] is recorded as “+++ (+++>50)”.
In data set [1], `CC(C)(C)c1nc(N2CCN(CC[C@H]3CC[C@@H](NC(=O)[C@H]4CC[C@H](O)CC4)CC3)CC2)cc(C2(C)CC2)n1` [Compound 28, Trans-N-[cis-4-[2-[4-[2-tert-butyl-6-(1-methylcyclopropyl)pyrimidin-4-yl]piperazin-1-yl]ethyl]cyclohexyl]-4-hydroxy-cyclohexanecarboxamide] showed a Ki of under 10 nM. In addition, the “Human mCl” value in data set [2] is recorded as “+ (+: 20-120 μl min^−1 mg^−1)”. Further, the “D2/D3, Ki (D2L)/Ki (D3)” value in data set [4] is “++ (++>20)”.
`CC(C)(C)c1nc(C2CCC2)cc(N2CCN(CC[C@H]3CC[C@H](NC(=O)[C@H]4CC[C@@H](O)CC4)CC3)CC2)n1.O=C(O)C(F)(F)F` [Compound 14, Cis-N-[trans-4-[2-[4-(2-tert-butyl-6-cyclobutyl-pyrimidin-4-yl)piperazin-1-yl]ethyl]cyclohexyl]-4-hydroxy-cyclohexanecarboxamide; 2,2,2-trifluoroacetic acid] registered a Ki in data set [1] of under 10 nM. Also, the “Human mCl” value in data set [2] is “∘ (∘: >120 μl min^−1 mg^−1)”. In data set [4], the “D2/D3, Ki (D2L)/Ki (D3)” value is listed as “++ (++>20)”.
`CC(C)(C)c1nc(C2CCC2)cc(N2CCN(CC[C@H]3CC[C@H](NC(=O)[C@H]4C[C@@H](O)C4)CC3)CC2)n1` [Compound 13, Cis-N-[trans-4-[2-[4-(2-tert-butyl-6-cyclobutyl-pyrimidin-4-yl)piperazin-1-yl]ethyl]cyclohexyl]-3-hydroxy-cyclobutanecarboxamide] came in with a Ki in data set [1] of under 10 nM. In addition, in data set [2], the “Human mCl” value is “∘ (∘: >120 μl min^−1 mg^−1)”. In addition, the “D2/D3, Ki (D2L)/Ki (D3)” value in data set [4] was “++ (++>20)”.
`CC(C)(C)c1nc(C2CCC2)cc(N2CCN(CC[C@H]3C[C@@H](NC(=O)[C@H]4CC[C@H](O)CC4)C3)CC2)n1` [Compound 10, Trans-N-[cis-3-[2-[4-(2-tert-butyl-6-cyclobutyl-pyrimidin-4-yl)piperazin-1-yl]ethyl]cyclobutyl]-4-hydroxy-cyclohexanecarboxamide] returned a Ki in data set [1] of under 10 nM. Moreover, the “Human mCl” value in data set [2] is reported as “+ (+: 20-120 μl min^−1 mg^−1)”. The “D2/D3, Ki (D2L)/Ki (D3)” value in data set [4] is recorded as “+++ (+++>50)”.
For `COCCc1cc(N2CCN(CC[C@H]3C[C@H](NC(=O)C4CCC(O)CC4)C3)CC2)nc(C(C)(C)C)n1` (relative stereo) [Compound 11, N-[trans-3-[2-[4-[2-tert-butyl-6-(2-methoxyethyl)pyrimidin-4-yl]piperazin-1-yl]ethyl]cyclobutyl]-4-hydroxy-cyclohexanecarboxamide], in that order: under 10 nM, “+ (+: 20-120 μl min^−1 mg^−1)” and “++ (++>20)”.
In turn, `COCCc1cc(N2CCN(CC[C@H]3C[C@@H](NC(=O)[C@H]4CC[C@@H](O)CC4)C3)CC2)nc(C(C)(C)C)n1` [Compound 12, Cis-N-[cis-3-[2-[4-[2-tert-butyl-6-(2-methoxyethyl)pyrimidin-4-yl]piperazin-1-yl]ethyl]cyclobutyl]-4-hydroxy-cyclohexanecarboxamide] gave a Ki in data set [1] of under 50 nM. For the same molecule, the “Human mCl” value in data set [2] was “+ (+: 20-120 μl min^−1 mg^−1)”. Further, the “D2/D3, Ki (D2L)/Ki (D3)” value in data set [4] is on record as “+++ (+++>50)”.

Broadly, the Ki is the dissociation constant of the complex between target and ligand, obtained from inhibition or displacement. A high value points to a looser hold on the target. The IC50 is the point on the concentration scale where inhibition reaches its midpoint. Low values mean greater potency, high ones weaker potency.
